Tests used:
Format in all cases: cell-based
Cortisol = Cortisol competitive ELISA on explant culture media; details: for Cortisol (ng/mL), Mean: released in BEM culture medium
Description: (§1) On day 0 (D0), D1, D4, D5 and D7, the product P was topically applied on the basis of 2 mg/cm^2 (± 2µL per explant) and spread using a small spatula. […] The culture medium was half renewed (1 ml per well) on D1, D4, D5 and D7.
(§2) On day 0 (D0), the 3 explants from the batch T0 were collected and cut into 2 parts: half was fixed in formalin buffered solution and half was frozen at -80°C. On D5 and D9, the 3 explants of each batch were collected and processed in the same way than on day 0; the fourth explants were kept frozen at -80°C. The culture media of all explants were collected on D1, D4, D5, D7 (1 ml per explant) and on day 9 (2 ml per explant) and stored at -20°C for cortisol dosage.
Cortisol competitive assay was performed with human Cortisol ELISA kit (Enzo life sciences, ref. 25-0358-ADI-901-071). According to provider's guidelines, the culture media were diluted at 1/200 and the Cortisol standards were incubated for 2 hours at room temperature with a monoclonal antibody specific to Cortisol in a sample or an alkaline phosphatase molecule which has Cortisol covalently attached to it. […] The intensity of the bound yellow color is inversely proportional to the concentration of Cortisol in either standards or samples. Absorbance at 405 nm was measured using the M200Pro Tecan microplate reader and Magellan7 software. Cortisol assay was performed on culture BEM media on day 5 (pool of D1, D4, D5 culture media) and day 9 (pool of D7 and D9 culture media). The concentration of cortisol was expressed in ng/ml.

epidermis and dermis = assay: Control of cell viability of skin explants (Masson's trichrome staining, Goldner variant); details: for Cell viability Dermis / Cell viability Epidermis: explants
Description: The explants were distributed into 3 batches as follows:
as §1, §2
(§3) After fixation for 24 hours in buffered formalin solution, the samples were dehydrated and impregnated in paraffin using a Leica PEARL dehydration automat. The samples were then paraffin-embedded using a Leica EG 1160 embedding station. 5-µm-thick sections of formol fixed paraffin-embedded (FFPE) skin sections were realized using a Leica RM 2125 Minot-type microtome, and the sections were then mounted on Superfrost® Plus glass slides. The frozen samples were cut into 7-µm-thick sections using a Leica CM 3050 cryostat. Sections were then mounted on Superfrost® plus silanized glass slides. Microscopical observations were realized using a Leica DMLB, a BX43 or BX63 Olympus microscope. Pictures were digitized with an Olympus DP72 or DP74 camera and the cellSens dimension data storing software (Olympus).
The observation of the cell viability of the epidermis and dermis was performed after staining of formalin-fixed paraffin- embedded (FFPE) skin sections according to Masson's trichrome, Goldner variant.

Beta-endorphin = Beta-endorphin immunostaining of explant skin sections with image analysis; details: for Beta-endorphin in the epidermis (% surface), Average: image analysis
Description: as §1, §2, §3
The immunostaining was assessed by microscopical observation and image analysis.
The images analyses were performed on all the images of each batch, according to the following method using cellSens software. The process is illustrated in Figure 2. For each batch of explants, the percentage of the region of interest covered by the staining (stained surface percentage) is determined by image analysis according to the previously described process.
The stained surface percentage (Surf%) for each treatment was compared to the untreated condition => P vs T.

[1] = topical 2 mg/cm^2, day 5 (batch PJ5)
[2] = topical 2 mg/cm^2, day 9 (batch PJ9)

C=C(C)[C@@H]1CCC(C)=C[C@H]1c1c(O)cc(CCCCC)cc1O [Cannabidiol] was tested, and the decrease of cortisol (Cortisol; D5, compared to the batch TJ5) was 24%, the decrease of cortisol (Cortisol; D9, compared to the batch TJ9) was 18% and the “Cortisol (ng/mL), Mean” value (Cortisol; day 5 (pool of D1, D4, D5), batch PJ5) was 246.5 ng/mL. For the same compound, the “Cortisol (ng/mL), Mean” value (Cortisol; day 9 (pool of D7 and D9), batch PJ9) was 255.1 ng/mL, the “Effect of product application on cell viability” value (epidermis and dermis; D5, compared to the batch TJ5) was “no modification” and the “Effect of product application on cell viability” value (epidermis and dermis; D9, compared to the batch TJ9) was “no modification”. The “Cell viability Dermis” value (epidermis and dermis; [1]) was “good”, the “Cell viability Epidermis” value (epidermis and dermis; [1]) was “good” and the “Cell viability Dermis” value (epidermis and dermis; [2]) was “good”. The “Cell viability Epidermis” value (epidermis and dermis; [2]) was “fairly good”, the “Effect of product application on beta-endorphin expression (microscopical observation of staining in the epidermis)” value (Beta-endorphin; D5, compared to the batch TJ5) was “slight increase” and the “increase of beta-endorphin expression” value (Beta-endorphin; D5, compared to the batch TJ5, image analysis) was 24%. The “Effect of product application on beta-endorphin expression (microscopical observation of staining in the epidermis)” value (Beta-endorphin; D9, compared to the batch TJ9) was “slight increase”, the “increase of beta-endorphin expression” value (Beta-endorphin; D9, compared to the batch TJ9, image analysis) was 30% and the “Beta-endorphin in the epidermis (% surface), Average” value (Beta-endorphin; day 5 (batch PJ5)) was 33.1 % surface. For the same compound, the “Beta-endorphin in the epidermis (% surface), Average” value (Beta-endorphin; day 9 (batch PJ9)) was 12.5 % surface.

From patent EP4079301A2, “COMPOSITIONS COMPRISING CANNABIDIOL AND, OPTIONALLY, BISABOLOL” (Symrise AG, priority 2021, dated 2022)
